Experiment: in vitro
Conditions: human, hela cells, % viability

Structure (SMILES) | viability at 28.5 h, 10 µM [%] | viability at 28.5 h, 10 µM (bulk resorufin, single well) [%]
OCc1nc(-c2cccnc2)co1 [CBK018811] | 106 | –
CCOc1nccnc1N1CCNCC1 [CBK001899G] | 93.1 | –
CCOc1cc(C(O)c2nnc(-c3ccccc3)o2)ccc1OCC(C)C (stereo not shown) [CBK132385] | 89.1 | –
COc1ccc(C[C@@]23CC[C@@H](NC(=S)NCc4ccccc4)C[C@@H]2N(C)CC3)cc1 [CBK004262] | 88.4 | –
O=C(/C=C/c1cccnc1)Nc1ccccc1N1CCNCC1 [CBK034136T] | 102 | –
Cc1ccc(OCC(=O)Nc2ncn(Cc3cccnc3)n2)cc1 [CBK304888] | 85 | –
Cc1ccccc1CSCC(=O)N1CCN(c2ccccc2)CC1 [CBK058577] | 89 | –
c1ccc2c(CCN3CCC(Oc4nccnc4OC4CCCCC4)CC3)c[nH]c2c1 [CBK082877T] | 86.2 | –
COc1cc(C(=O)NN)cc(OC)n1 [CBK012275] | 83.7 | –
O=C(Nc1ccccc1)C(N1CCCCC1)N1CCCCC1 [CBK263425] | 105 | –
O=C(COc1cccnc1)N[C@H]1C2CCCCC2[C@@H]1c1ccccc1 (stereo partly shown) [CBK282951] | 100 | –
CCc1nc2c(Oc3nc4ccccc4s3)cccn2c1N(C)C(=O)C(C)C [CBK147765] | 88.5 | –
CN(C)Cc1c(O)ccc2occ(C(=O)c3cccs3)c12 [CBK261959C] | 103 | –
c1ccc(Nc2ccccc2Nc2ccccn2)nc1 [CBK261806] | 93.5 | –
CCn1cc(C(C)NC(=S)Nc2ccc(OC)cc2OC)c(C)n1 (stereo not shown) [CBK266950] | 90 | –
COc1cc2c(cc1NC(=O)C/C(C)=N/NC(=O)c1ccoc1C)oc1ccccc12 [CBK262953] | 112 | –
COCCn1c(CO)nnc1[C@H]1C[C@H](NC(=O)c2ccc(F)cc2F)C1 [CBK306665] | 102 | –
CC(=O)Oc1cc(C(F)(F)F)nc(NCc2ccc(Cl)cc2)n1 [CBK000500] | 94.7 | –
Oc1ccccc1C(=S)N1CCCCC1 [CBK027552] | 92.8 | –
CCC(c1nc2ccccc2c(=O)n1CCCn1ccnc1)N1C(=O)c2ccccc2C1=O (stereo not shown) [CBK268560] | 107 | –
CCSc1nc(-c2ccncc2)ccc1C#N [CBK288539] | 75.2 | –
O=C1CN(S(=O)(=O)c2ccc(NS(=O)(=O)c3ccc4ccccc4c3)cc2)CC(=O)N1 [CBK262513] | 95.4 | –

Structure (SMILES) | viability at 28.5 h, 10 µM [%] | viability at 28.5 h, 10 µM (bulk resorufin, single well) [%]
Cc1noc(NS(=O)(=O)c2ccc(NC(=O)/C=C/c3ccc(C(C)C)cc3)cc2)c1C [CBK265430] | 89.2 | –
O=[N+]([O-])c1ccc(/C=C/c2nn3c(Cn4cnc5ccccc54)nnc3s2)cc1 [CBK268273] | 104 | –
Cc1csc(NC(=O)c2cccn(Cc3cccc([N+](=O)[O-])c3)c2=O)n1 [CBK294414] | 87.4 | –
O=S(=O)(Nc1ncc(Br)c2cccnc12)c1cccc(C(F)(F)F)c1 [CBK073884] | 112 | –
O=C(O)/C(=C\c1ccccc1)NC(=O)c1cccc([N+](=O)[O-])c1 [CBK263348] | 96.3 | –
O=C(Nc1cccc(-c2nc3ncccc3o2)c1)c1ccc(Cl)c([N+](=O)[O-])c1 [CBK262845] | 88.8 | –
COc1ccc2[nH]cc(CCNC(=O)[C@H](CC(C)C)NC(C)=O)c2c1 [CBK116210] | 107 | –
O=C(Cc1ccsc1)N1CCn2nc(C(O)Cc3ccccc3)cc2C1 (stereo not shown) [CBK306547] | 95.9 | –
CCCn1ncc(CN2CCCC(c3cc4cccnc4[nH]3)C2)c1C (stereo not shown) [CBK284957] | 95.1 | –
O=C(O)c1cc(-c2ccc(/C=C3\SC(=S)N(Cc4cccnc4)C3=O)o2)ccc1Cl [CBK264712] | 112 | –
O=C(Cn1cnc(-c2noc(-c3cccnc3)n2)c1)Nc1ccc(Cl)cc1 [CBK287822] | 96.2 | –
COc1ccc(CCn2cncc2-c2cnn(C)c2)cc1C [CBK281457] | 107 | –
CC1CC1C(=O)NCCN1CCC(O)(c2cccc(F)c2)CC1 (stereo not shown) [CBK283286] | 84.4 | –
CC(C)(C)OC(=O)N1CCN(C(=O)N[C@@H](Cc2ccccc2)C(=O)O)CC1 [CBK286785] | 113 | –
CC(NS(=O)(=O)c1cc(Cl)ccc1Cl)C(=O)Nc1ccccc1 (stereo not shown) [CBK267871] | 110 | –
CC1(C)C[C@H](NC2CCOCC2)[C@@]2(CCC(=O)N3CCOCC3)CC[C@](C)(O)C[C@@H]12 [CBK289041] | 91.6 | –
CS(=O)(=O)N(Cc1ccc(Cl)cc1)c1ccc(C(=O)Nc2ccccc2C(=O)O)cc1 [CBK264093] | 105 | –
CCCCOC(=O)CCNc1n[nH]c(=O)[nH]c1=O [CBK027838] | 97.3 | –
CC(C)OC(=O)N1CCC(CNc2ncc(-c3ccc(S(C)(=O)=O)cc3)cn2)CC1 [CBK165367] | 99.1 | –
Cc1noc2nc(-c3cccnc3)cc(C(=O)O)c12 [CBK288207] | 92.4 | –
CCC(CC)C(=O)Nc1ccc([C@@H](O)[C@H]2COCC(=O)N2CC)cc1 [CBK289684] | 107 | –
COc1ccc(/C=N/Nc2nc(OC)nc(N3CCOCC3)n2)cc1 [CBK025751] | 91.6 | –

Structure (SMILES) | viability at 28.5 h, 10 µM [%] | viability at 28.5 h, 10 µM (bulk resorufin, single well) [%]
N#Cc1cc(CN2CCCN(S(=O)(=O)c3ccc(C(F)(F)F)cc3Cl)CC2)ccc1F [CBK063100] | 98.8 | –
COc1ccccc1CC(=O)NCCC(=O)N1CCN(c2ccc(F)cc2)CC1 [CBK298318] | 87.6 | –
CSCCCNC(=O)N(C)C1CCN(C)C1 (stereo not shown) [CBK155995] | 104 | –
COc1cccc2cc(C(=O)NCc3ccc(Cl)c(Cl)c3)oc12 [CBK149795] | 85.2 | –
Clc1nsnc1N1CCOCC1 [CBK019133] | 101 | –
O=C(Nc1cccnc1)N1CCN(CCc2ccccc2)CC1 [CBK158937] | 95.4 | –
O=C(O)c1cn(C2CC2)c2cc(N3CCN(C(=O)C4CCCO4)CC3)c(F)cc2c1=O (stereo not shown) [CBK297139] | 97.7 | –
CC1(C)C(CC(=O)NC2CCCCC2)CC1C(=O)NC1CCCCC1 (stereo not shown) [CBK009260] | 98.8 | –
Nc1nonc1-n1nncc1CN1CCCCC1 [CBK307045] | 86.9 | –
CCOC(=O)CN1CCC(Oc2cncc(OCC3COc4ccccc4O3)n2)C1 (stereo not shown) [CBK084375] | 92.6 | –
CCOC(=O)c1cccnc1-c1ccc(S(C)(=O)=O)cc1 [CBK149242] | 105 | –
CN(Cc1ccccc1)C(=O)c1cc(=O)[nH]c2ccccc12 [CBK287971] | 92.8 | –
CCC(C(=O)Nc1ccccc1C(=O)Nc1c(Cl)cccc1Cl)c1ccccc1 (stereo not shown) [CBK266068] | 98.4 | –
COC(=O)c1c(NC(=S)NCCn2cc(Br)cn2)sc2c1CCC2 [CBK266905] | 98.2 | –
COc1ccc(CSc2nnc(-c3ccncc3)n2C)cc1[N+](=O)[O-] [CBK269638] | 87.7 | –
Cc1cc(C(=O)N2CC3CCCC(O)(c4cccn4C)C3C2)c(C)[nH]1 (stereo not shown) [CBK284514] | 93.9 | –
O=C(c1cccs1)N1CCCC1c1nc2ccccc2[nH]1 (stereo not shown) [CBK284006] | 81.8 | –
CCCN1CCC(CNC(=O)c2cc(C3CC3)nn2C)CC1 [CBK282536] | 101 | –
N=C(NC(=S)Nc1ccccc1)N1CCN(Cc2ccccc2)CC1 [CBK267878] | 106 | –
CNC(=O)C1(Cc2ccc(-c3cccs3)cc2)CCN(C(=O)C2CCCCC2)CC1 [CBK285793] | 88 | –
O=C(O)C(Cc1c[nH]c2ccccc12)N1Cc2ccccc2C1=O (stereo not shown) [CBK287056] | 82 | –
CCN(CC)CCN(Cc1ccc2c(c1)OCO2)C(=O)Nc1cccc(NC(C)=O)c1 [CBK159042] | 108 | –

Structure (SMILES) | viability at 28.5 h, 10 µM [%] | viability at 28.5 h, 10 µM (bulk resorufin, single well) [%]
COc1cc(OC)cc(C(=O)N2CCC3(CC2)NC(=O)c2ccc(OC)cc2O3)c1 [CBK166328] | 106 | –
Cc1[nH]c2ccccc2c1/C=C1/C(=N)N2C(SCc3ccccc3)=NSC2=NC1=O [CBK265291] | 90 | –
CCNC(Cc1ccc2ccccc2c1)C(=O)OC (stereo not shown) [CBK071702] | 109 | –
COc1ccc(C2=NN(c3ccccc3)C(c3ccc(OC)c(OC)c3C(=O)O)C2)cc1 (stereo not shown) [CBK262679] | 89.3 | –
COc1ccc(-c2nnc([C@H]3CCN(Cc4ccccn4)C3)o2)cc1 [CBK289401] | 93.4 | –
CC1=C[C@@H](CNS(C)(=O)=O)[C@H](C(C)C)C[C@H]1Cc1nnc(-c2ccccc2F)o1 [CBK289226] | 116 | –
O=C1NC(=O)C(=Cc2cc(Br)ccc2OCc2cccc(F)c2)C(=O)N1 [CBK264160] | – | 104
CN(C)S(=O)(=O)c1ccc(NC(=O)CCC(=O)O)cc1 [CBK267156] | 91.6 | –
CC(=O)Nc1ccc(NC(=O)CCCC(=O)O)cc1 [CBK260984] | 104 | –
O=S(=O)(Nc1cccc2[nH]ccc12)c1ccc(Br)cc1F [CBK153547] | 80.6 | –
O=C(OCc1nnsc1Cl)c1ccc(C(=O)c2ccccc2)cc1 [CBK297897] | 109 | –
Cc1ccc2c(c1)C(c1c[nH]c3ccccc13)(c1c[nH]c3ccccc13)C(=O)N2C [CBK266401] | 103 | –
Cc1cc(CN2CCN(C(=O)NCCc3ccccn3)CC2)on1 [CBK305637] | 80 | –
Cc1nc(CN2CCCC(NCc3cccc4ccccc34)C2)no1 (stereo not shown) [CBK304068] | 71.4 | –
COc1ccc(C2C(C(=O)c3ccco3)=C(O)C(=O)N2CCN2CCOCC2)cc1OC (stereo not shown) [CBK264544] | 98.8 | –
Cc1noc(C)c1S(=O)(=O)Nc1c(C(=O)N2CCN(C)CC2)[nH]c2ccccc12 [CBK050057] | 98.9 | –
O=C(O)c1ccc(NS(=O)(=O)c2ccc3ccccc3c2)cc1 [CBK034053] | 96.6 | –
Cc1cccc(CN2CC[C@@H]3[C@H](C2)[C@@H](c2ccsc2)CN3C(=O)c2ccccc2F)c1 [CBK285659] | 109 | –
CCOc1ccc(S(=O)(=O)N2CCN(Cc3cccc(F)c3C)CC2)c2cccnc12 [CBK062794] | 78.3 | –
COC(=O)Nc1nc2cc3cn[nH]c3cc2[nH]1 [CBK016129] | 105 | –
O=C(C1CCC1)N1CCC(n2c(=O)[nH]c3ccccc32)CC1 [CBK149709] | 108 | –
COc1ccc(/C(N)=N/OC(=O)Cc2ccc(Cl)cc2)cc1OC [CBK263272] | 93.2 | –
